Values joined by “and” are separate entries in the source; they are usually repeats but may differ in a detail not shown here. Equal entries are not always repeated. Where two headings read alike, the source gives them in different places.
Assays:
A375 = test: SRB antiproliferation assay, A375 melanoma; format: cell-based, human; details: read-out: IC50 A375 (converted)
Text: (§1) For melanoma assays, one human melanoma cell line (A375) and one mouse melanoma cell line (B16-F1) were used. […] Fibroblast cells were used as a control to determine the selectivity of these compounds against melanoma. Human dermal fibroblast cells were purchased from Cascade Biologics, Inc., Portland, Oreg., USA.

B16-F1 = test: SRB antiproliferation assay, B16-F1 melanoma; format: cell-based, mouse; details: read-out: IC50 B16-F1 (converted)
Text: as §1

[1] = tested on: melanoma (A375, B16-F1) and prostate cancer cells (DU145, PC-3, LNCaP, PPC-1); test: SRB assay, range over melanoma and prostate cancer cell lines; format: cell-based; details: for antiproliferative activity against melanoma and prostate cancer cell lines, in words: compared with 8f or parent compounds
Procedure: For melanoma assays, one human melanoma cell line (A375) and one mouse melanoma cell line (B16-F1) were used. […] Fibroblast cells were used as a control to determine the selectivity of these compounds against melanoma. Human dermal fibroblast cells were purchased from Cascade Biologics, Inc., Portland, Oreg., USA. […] Cells were exposed to a wide range of concentrations for 48 h in round-bottomed 96-well plates. […] After cells were air-dried overnight and stained with SRB solution, total proteins were measured at 560 nm with a plate reader.

LNCaP = test: SRB antiproliferation assay, LNCaP prostate cancer; details: read-out: IC50 LNCaP, SRB
PC-3 = test: SRB antiproliferation assay, PC-3 prostate cancer; details: read-out: IC50 PC-3, SRB
PPC-1 = test: SRB antiproliferation assay, PPC-1 prostate cancer; details: read-out: IC50 PPC-1, SRB
DU 145 = test: SRB antiproliferation assay, DU 145 prostate cancer; details: read-out: IC50 DU 145; SRB
[2] = Homo sapiens, A-375, 48 h, SRB, 48 h
[3] = Mus musculus, B16-F1, 48 h, SRB, 48 h
[4] = range over the examined cell lines, read-out: IC50 over melanoma and prostate cancer cell lines

| SMILES | melting point | IC50 (A375; [2]) | IC50 (B16-F1; [3]) | IC50 [1, 4] | further results |
| --- | --- | --- | --- | --- | --- |
| COc1cc(NC(=O)[C@@H]2CSC(c3ccccc3)N2)cc(OC)c1OC (mixture of isomers) [2a, (2RS,4R)-2-Phenyl-N-(3,4,5-trimethoxyphenyl)thiazolidine-4-carboxamide] | 158 to 159 °C | > 100 µM | > 100 µM |  | antiproliferative activity against melanoma and prostate cancer cell lines, in words [1]: potency against both cancer cell lines was lost |
| COc1cc(NC(=O)[C@@H]2CSC(c3cc(OC)c(OC)c(OC)c3)N2)cc(OC)c1OC (mixture of isomers) [2b, (2RS,4R)—N,2-bis(3,4,5-trimethoxyphenyl)thiazolidine-4-carboxamide] | 147 to 149 °C | > 100 µM | > 100 µM |  | antiproliferative activity against melanoma and prostate cancer cell lines, in words [1]: potency against both cancer cell lines was lost |
| COc1cc(NC(=O)[C@@H]2CSC(c3ccccc3)=N2)cc(OC)c1OC [4a, (4R)-2-Phenyl-N-(3,4,5-trimethoxyphenyl)-4,5-dihydrothiazole-4-carboxamide] | 121 to 122 °C and 122 to 123 °C | 22.8 ± 1.6 µM | 38.3 ± 3.2 µM | 3.4 to 38.3 µM |  |
| COc1cc(NC(=O)[C@@H]2CSC(c3ccccc3)=N2)cc(OC)c1OC [4b, (4R)-2-Phenyl-N-(3,4,5-trimethoxyphenyl)-4,5-dihydrothiazole-4-carboxamide] |  |  |  |  | IC50 (A375; SRB, 48 h, listed as 4b(4S)): 13.6 ± 1.2 µM; IC50 (LNCaP; 96 h, listed as 4b(4S)): 16.8 ± 1.8 µM; IC50 (PC-3; 96 h, listed as 4b(4S)): 13.2 ± 2.1 µM; IC50 (PPC-1; 96 h, listed as 4b(4S)): 3.4 ± 0.2 µM; IC50 (B16-F1; SRB, 48 h, listed as 4b(4S)): 30.4 ± 2.8 µM |
| O=C(c1ccccc1)c1csc(-c2ccccc2)n1 [8a, Phenyl (2-phenylthiazol-4-yl)-methanone] | 65 to 66 °C | > 100 µM | > 100 µM |  |  |
| COc1ccc(C(=O)c2csc(-c3ccccc3)n2)cc1 [8b, (4-Methoxyphenyl)(2-phenylthiazol-4-yl)-methanone] | 105 to 106 °C | > 100 µM | > 100 µM | > 20 µM |  |
| COc1cccc(C(=O)c2csc(-c3ccccc3)n2)c1 [8c, (3-Methoxyphenyl)(2-phenylthiazol-4-yl)-methanone] | 43 to 44 °C | > 100 µM | > 100 µM | > 20 µM |  |
| COc1ccccc1C(=O)c1csc(-c2ccccc2)n1 [8d, (2-Methoxyphenyl)(2-phenylthiazol-4-yl)-methanone] |  | 70.3 µM | 59.4 µM | > 20 µM |  |
| COc1ccc(C(=O)c2csc(-c3ccccc3)n2)cc1OC [8e, (3,4-Dimethoxyphenyl)(2-phenylthiazol-4-yl)-methanone] | 89 to 91 °C | > 100 µM | > 100 µM | > 20 µM |  |
| COc1cc(OC)cc(C(=O)c2csc(-c3ccccc3)n2)c1 [8g, (3,5-Dimethoxyphenyl)(2-phenylthiazol-4-yl)-methanone] | 84 to 85 °C | 0.17 µM | 0.35 µM | 0.17 to 0.424 µM | IC50 ([1]; average over six cell lines, read-out: average IC50): 0.261 µM |
| O=C(c1csc(-c2ccccc2)n1)c1ccccc1F [8h, (2-Fluorophenyl)(2-phenylthiazol-4-yl)-methanone] | 77 to 79 °C | > 100 µM | > 100 µM |  |  |
| O=C(c1ccccn1)c1csc(-c2ccccc2)n1 [8i, (2-Phenylthiazol-4-yl)-(pyridin-2-yl)-methanone] | 95 to 97 °C |  |  |  | antiproliferative activity against melanoma and prostate cancer cell lines, in words [1]: total loss of the anti-cancer activity |
| CCCCCCCCCCCCCCCCC(=O)c1csc(-c2ccccc2)n1 [8j, 1-(2-Phenylthiazol-4-yl)-heptadecan-1-one] | 63 to 64 °C | 16 µM | 18.6 µM |  |  |
| COc1cc(C(=O)c2csc(-c3ccc(C)cc3)n2)cc(OC)c1OC [8k, (2-p-Tolylthiazol-4-yl)-(3,4,5-trimethoxyphenyl)-methanone] | 116 to 119 °C |  |  | 0.005 to 0.021 µM | IC50 (PC-3): 0.005 µM |
| COc1ccc(-c2nc(C(=O)c3cc(OC)c(OC)c(OC)c3)cs2)cc1OC [8o, [2-(3,4-Dimethoxyphenyl)-thiazol-4-yl]-(3,4,5-trimethoxyphenyl)-methanone] |  |  |  |  | IC50 (DU 145): 0.102 µM; IC50 (A375; Homo sapiens, A-375, SRB): 0.034 µM; IC50 (LNCaP): 0.038 µM; IC50 (PC-3): 0.069 µM; IC50 (PPC-1): 0.056 µM; IC50 (B16-F1; Mus musculus, B16-F1, SRB): 0.161 µM |
| COc1cc(C(=O)c2csc(-c3ccc([N+](=O)[O-])cc3)n2)cc(OC)c1OC [8p, [2-(4-Nitrophenyl)-thiazol-4-yl]-(3,4,5-trimethoxyphenyl)-methanone] |  |  |  |  | IC50 (DU 145): 0.095 µM; IC50 (A375; Homo sapiens, A-375, SRB): 0.038 µM; IC50 (LNCaP): 0.039 µM; IC50 (PC-3): 0.056 µM; IC50 (PPC-1): 0.034 µM; IC50 (B16-F1; Mus musculus, B16-F1, SRB): 0.056 µM |
| COc1cc(C(=O)c2csc(-c3ccc(C(=O)O)cc3)n2)cc(OC)c1OC [8r, 4-[4-(3,4,5-Trimethoxybenzoyl)-thiazol-2-yl]-benzoic acid] | > 220 °C (dec.) |  |  |  | antiproliferative activity against melanoma and prostate cancer cell lines, in words [1]: total loss of the anti-cancer activity |

Reference: patent US10865196B2, “Compounds for treatment of cancer” (University of Tennessee Research Foundation, priority 2008, dated 2020)
